# Laboratory results taken from EPA's ToxValDB 9.5 (doi:10.2903/j.efsa.2009.205r).
# Assays:
# Apis mellifera = details: acute, mortality
# Tagia sp. = details: for LC50: acute, duration: 14 days, mortality
# Typhlodromus pyri = assay: LR50; higher = less toxic; details: not reported; mortality
# Bibionidae = details: chronic/long-term; duration: 28 days
# Daphnia magna = details: chronic/long-term; duration: 21 days; reproduction
# Landoltia sp. = details: chronic/long-term; duration: 14 days
# Plant = details: chronic/long-term; duration: 14 days
smiles,measurement,setting,value
C[C@@H](Oc1ccc(Oc2cnc3cc(Cl)ccc3n2)cc1)C(=O)OCC1CCCO1 (stereo partly drawn) [Quizalofop P tefuryl],LD50,"Anas platyrhynchos; acute, oral, unspecified, mortality",> 2150 mg/kg
same,NOEC,Anas platyrhynchos; reproductive,68.7 mg/kg-day
same,LC50,"Anas platyrhynchos; short-term, oral, feed, mortality",> 259 mg/kg-day
same,LD50,Apis mellifera; dermal,> 100 µg/piece
same,LD50,"Apis mellifera; oral, unspecified",16.8 µg/piece
same,LC50,"Colinus virginianus; acute, oral, diet, mortality",> 487 mg/kg-day
same,LD50,"Colinus virginianus; acute, oral, mortality",> 2150 mg/kg
same,NOEC,Colinus virginianus; reproduction developmental,69.4 mg/kg-day
same,LD50,"Rattus norvegicus; acute, oral, mortality",1010 mg/kg-day
same,NOAEL,"Rattus norvegicus; chronic, duration: 2 years, oral, diet",1.3 mg/kg-day
same,NOAEL,"Rattus norvegicus; reproduction developmental, mortality",10 mg/kg-day
same,NOAEL,"Rattus norvegicus; reproduction developmental, reproduction",16.9 mg/kg-day
same,NOAEL,"Rattus norvegicus; subchronic, duration: 90 days, oral, organ weight",1.7 mg/kg-day
same,LC50,Tagia sp.,16.9 mg/kg
same,LR50,Typhlodromus pyri,< 100 g/ha
CC(Oc1ccc(Oc2cnc3cc(Cl)ccc3n2)cc1)C(=O)O (stereo not drawn) [Quizalofop],NOEC,Bibionidae,35.7 mg/L
same,NOEC,Daphnia magna,0.82 mg/L
same,NOEC,Landoltia sp.,3.2 mg/L
same,LC50,"Oncorhynchus mykiss; acute, duration: 96 hours, mortality",> 100 µg/mL
same,NOEC,"Oncorhynchus mykiss; chronic/long-term, duration: 28 days, growth",46.2 mg/L
same,NOEC,Plant,0.094 mg/L
same,LC50,Tagia sp.,948 mg/kg
same,NOEC,Tagia sp.; chronic/long-term,> 50 mg/kg
